Results: the supplement of paper PMC10307832

Key:
Assay in all cases: relative viability (nuclei count vs DMSO), 5 days (fraction); higher = more cells survive
[1] = tested on: ABC-1
Outline: (§1)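 For relative viability, nuclei counts in treated wells were divided by those in vehicle wells. Lung cancer cell lines had been pin-tool dosed in 1536-well plates the day after seeding and cultured for 5 days, then fixed and stained in one step (final 0.05% Triton X-100, 1% formaldehyde, 1 ug/ml Hoechst) and imaged at 4×. Doses were one drug alone or a fixed anchor-drug dose plus five library-drug doses (not always all listed) in √10 steps, and values are duplicate-plate medians.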

[2] = tested on: COR-L23
Outline: as §1

[3] = tested on: EPLC-272H
Outline: as §1

[4] = tested on: HARA
Outline: as §1

[5] = tested on: HCC-15
Outline: as §1

[6] = tested on: HCC-44
Outline: as §1

[7] = tested on: HOP-62
Outline: as §1

[8] = tested on: LC-2-ad
Outline: as §1

[9] = tested on: LU99A
Outline: as §1

[10] = tested on: NCI-H1355
Outline: as §1

[11] = tested on: NCI-H1651
Outline: as §1

[12] = tested on: NCI-H1915
Outline: as §1

[13] = tested on: NCI-H1993
Outline: as §1

[14] = tested on: NCI-H2023
Outline: as §1

[15] = tested on: NCI-H2085
Outline: as §1

[16] = tested on: NCI-H2126
Outline: as §1

[17] = tested on: NCI-H2347
Outline: as §1

[18] = tested on: NCI-H650
Outline: as §1

[19] = tested on: NCI-H838
Outline: as §1

[20] = tested on: PC-14
Outline: as §1

[21] = tested on: SW 1573
Outline: as §1

[22] = tested on: UMC-11
Outline: as §1

`CC(=O)O[C@@]12CO[C@@H]1C[C@H](O)[C@@]1(C)C(=O)[C@H](O)C3=C(C)[C@@H](OC(=O)[C@H](O)[C@@H](NC(=O)OC(C)(C)C)c4ccccc4)C[C@@](O)([C@@H](OC(=O)c4ccccc4)[C@H]21)C3(C)C` [Docetaxel] + COc1cccc2cc(-c3nc([C@H]4CC[C@H](C(=O)O)CC4)n4ncnc(N)c34)[nH]c12 [OSI-027] (partner 0.5 µM) gave a relative viability ([1]; first compound 0.0002 µM) of 0.443, a relative viability ([1]; first compound 0.000632 µM) of 0.562 and a relative viability ([1]; first compound 0.002 µM) of 0.289. It also gave a relative viability ([1]; first compound 0.006325 µM) of 0.178, a relative viability ([1]; first compound 0.02 µM) of 0.186 and a relative viability ([2]; first compound 0.0002 µM) of 0.715. The relative viability ([2]; first compound 0.000632 µM) was 0.689, the relative viability ([2]; first compound 0.002 µM) was 0.444 and the relative viability ([2]; first compound 0.006325 µM) was 0.147. For the same compound, the relative viability ([2]; first compound 0.02 µM) was 0.116, the relative viability ([3]; first compound 0.0002 µM) was 0.258 and the relative viability ([3]; first compound 0.000632 µM) was 0.235. For the same compound, the relative viability ([3]; first compound 0.002 µM) was 0.228, the relative viability ([3]; first compound 0.006325 µM) was 0.159 and the relative viability ([3]; first compound 0.02 µM) was 0.124. It also gave a relative viability ([4]; first compound 0.0002 µM) of 0.341, a relative viability ([4]; first compound 0.000632 µM) of 0.159 and a relative viability ([4]; first compound 0.002 µM) of 0.0997. For the same compound, the relative viability ([4]; first compound 0.006325 µM) was 0.106, the relative viability ([4]; first compound 0.02 µM) was 0.0539 and the relative viability ([5]; first compound 0.0002 µM) was 0.542. For the same compound, the relative viability ([5]; first compound 0.000632 µM) was 0.246, the relative viability ([5]; first compound 0.002 µM) was 0.205 and the relative viability ([5]; first compound 0.006325 µM) was 0.219. It also gave a relative viability ([5]; first compound 0.02 µM) of 0.133, a relative viability ([6]; first compound 0.0002 µM) of 0.533 and a relative viability ([6]; first compound 0.000632 µM) of 0.591. For the same compound, the relative viability ([6]; first compound 0.002 µM) was 0.269, the relative viability ([6]; first compound 0.006325 µM) was 0.294 and the relative viability ([6]; first compound 0.02 µM) was 0.16. It also gave a relative viability ([7]; first compound 0.0002 µM) of 0.835, a relative viability ([7]; first compound 0.000632 µM) of 0.631 and a relative viability ([7]; first compound 0.002 µM) of 0.369. The relative viability ([8]; first compound 0.0002 µM) was 0.598, the relative viability ([8]; first compound 0.000632 µM) was 0.589 and the relative viability ([8]; first compound 0.002 µM) was 0.441. The relative viability ([8]; first compound 0.006325 µM) was 0.415, the relative viability ([9]; first compound 0.0002 µM) was 0.293 and the relative viability ([9]; first compound 0.002 µM) was 0.29. For the same compound, the relative viability ([9]; first compound 0.006325 µM) was 0.247, the relative viability ([9]; first compound 0.02 µM) was 0.202 and the relative viability ([10]; first compound 0.0002 µM) was 0.431. For the same compound, the relative viability ([10]; first compound 0.000632 µM) was 0.386, the relative viability ([10]; first compound 0.002 µM) was 0.252 and the relative viability ([10]; first compound 0.006325 µM) was 0.275. For the same compound, the relative viability ([10]; first compound 0.02 µM) was 0.198, the relative viability ([11]; first compound 0.0002 µM) was 0.627 and the relative viability ([11]; first compound 0.000632 µM) was 0.783. It also gave a relative viability ([11]; first compound 0.002 µM) of 0.38, a relative viability ([11]; first compound 0.006325 µM) of 0.14 and a relative viability ([11]; first compound 0.02 µM) of 0.0753. It also gave a relative viability ([12]; first compound 0.0002 µM) of 0.603, a relative viability ([12]; first compound 0.000632 µM) of 0.505 and a relative viability ([12]; first compound 0.006325 µM) of 0.224. It also gave a relative viability ([12]; first compound 0.02 µM) of 0.14, a relative viability ([13]; first compound 0.0002 µM) of 0.556 and a relative viability ([13]; first compound 0.000632 µM) of 0.616. It also gave a relative viability ([13]; first compound 0.002 µM) of 0.6, a relative viability ([13]; first compound 0.006325 µM) of 0.501 and a relative viability ([13]; first compound 0.02 µM) of 0.414. For the same compound, the relative viability ([14]; first compound 0.0002 µM) was 0.341, the relative viability ([14]; first compound 0.000632 µM) was 0.339 and the relative viability ([14]; first compound 0.002 µM) was 0.131. It also gave a relative viability ([14]; first compound 0.006325 µM) of 0.0963, a relative viability ([14]; first compound 0.02 µM) of 0.0554 and a relative viability ([15]; first compound 0.0002 µM) of 0.718. For the same compound, the relative viability ([15]; first compound 0.000632 µM) was 0.706, the relative viability ([15]; first compound 0.002 µM) was 0.433 and the relative viability ([15]; first compound 0.006325 µM) was 0.316. It also gave a relative viability ([15]; first compound 0.02 µM) of 0.272, a relative viability ([16]; first compound 0.0002 µM) of 0.742 and a relative viability ([16]; first compound 0.000632 µM) of 0.622. For the same compound, the relative viability ([16]; first compound 0.002 µM) was 0.281, the relative viability ([16]; first compound 0.006325 µM) was 0.297 and the relative viability ([16]; first compound 0.02 µM) was 0.221. The relative viability ([17]; first compound 0.0002 µM) was 0.435, the relative viability ([17]; first compound 0.000632 µM) was 0.382 and the relative viability ([17]; first compound 0.002 µM) was 0.329. It also gave a relative viability ([17]; first compound 0.006325 µM) of 0.282, a relative viability ([17]; first compound 0.02 µM) of 0.249 and a relative viability ([18]; first compound 0.0002 µM) of 0.436. It also gave a relative viability ([18]; first compound 0.000632 µM) of 0.375, a relative viability ([18]; first compound 0.002 µM) of 0.266 and a relative viability ([18]; first compound 0.006325 µM) of 0.265. For the same compound, the relative viability ([18]; first compound 0.02 µM) was 0.181, the relative viability ([19]; first compound 0.0002 µM) was 0.331 and the relative viability ([19]; first compound 0.000632 µM) was 0.422. For the same compound, the relative viability ([19]; first compound 0.002 µM) was 0.259, the relative viability ([19]; first compound 0.006325 µM) was 0.16 and the relative viability ([19]; first compound 0.02 µM) was 0.134. For the same compound, the relative viability ([20]; first compound 0.0002 µM) was 0.759, the relative viability ([20]; first compound 0.000632 µM) was 0.549 and the relative viability ([20]; first compound 0.002 µM) was 0.121. The relative viability ([20]; first compound 0.006325 µM) was 0.0548, the relative viability ([20]; first compound 0.02 µM) was 0.0206 and the relative viability ([21]; first compound 0.0002 µM) was 0.677. For the same compound, the relative viability ([21]; first compound 0.000632 µM) was 0.326, the relative viability ([21]; first compound 0.002 µM) was 0.199 and the relative viability ([21]; first compound 0.02 µM) was 0.124. The relative viability ([22]; first compound 0.0002 µM) was 0.433, the relative viability ([22]; first compound 0.000632 µM) was 0.469 and the relative viability ([22]; first compound 0.002 µM) was 0.231. The relative viability ([22]; first compound 0.006325 µM) was 0.244 and the relative viability ([22]; first compound 0.02 µM) was 0.175.
